The source of these data is the Kinase Knowledgebase extract (Sharma et al. 2016).

For experiment [1], the target named is PIK3CG (human) (UniProt P48736). Description: Inhibition of PIK3CG Kinase Activity.
Experiment [2] concerns the target PIK3CB (Human) (UniProt P42338). Description: Inhibition of PIK3CB Kinase Activity.
For experiment [3], the target named is PIK3CD (Human) (UniProt O00329). Description: Inhibition of PIK3CD Kinase Activity.
The target of experiment [4] is PIK3CA (human) (UniProt P42336). Briefly: Inhibition of PIK3CA Kinase Activity.

Molecules are shown by their SMILES.

Chain of PIK3CA (human) (P42336 whole entry, looked up): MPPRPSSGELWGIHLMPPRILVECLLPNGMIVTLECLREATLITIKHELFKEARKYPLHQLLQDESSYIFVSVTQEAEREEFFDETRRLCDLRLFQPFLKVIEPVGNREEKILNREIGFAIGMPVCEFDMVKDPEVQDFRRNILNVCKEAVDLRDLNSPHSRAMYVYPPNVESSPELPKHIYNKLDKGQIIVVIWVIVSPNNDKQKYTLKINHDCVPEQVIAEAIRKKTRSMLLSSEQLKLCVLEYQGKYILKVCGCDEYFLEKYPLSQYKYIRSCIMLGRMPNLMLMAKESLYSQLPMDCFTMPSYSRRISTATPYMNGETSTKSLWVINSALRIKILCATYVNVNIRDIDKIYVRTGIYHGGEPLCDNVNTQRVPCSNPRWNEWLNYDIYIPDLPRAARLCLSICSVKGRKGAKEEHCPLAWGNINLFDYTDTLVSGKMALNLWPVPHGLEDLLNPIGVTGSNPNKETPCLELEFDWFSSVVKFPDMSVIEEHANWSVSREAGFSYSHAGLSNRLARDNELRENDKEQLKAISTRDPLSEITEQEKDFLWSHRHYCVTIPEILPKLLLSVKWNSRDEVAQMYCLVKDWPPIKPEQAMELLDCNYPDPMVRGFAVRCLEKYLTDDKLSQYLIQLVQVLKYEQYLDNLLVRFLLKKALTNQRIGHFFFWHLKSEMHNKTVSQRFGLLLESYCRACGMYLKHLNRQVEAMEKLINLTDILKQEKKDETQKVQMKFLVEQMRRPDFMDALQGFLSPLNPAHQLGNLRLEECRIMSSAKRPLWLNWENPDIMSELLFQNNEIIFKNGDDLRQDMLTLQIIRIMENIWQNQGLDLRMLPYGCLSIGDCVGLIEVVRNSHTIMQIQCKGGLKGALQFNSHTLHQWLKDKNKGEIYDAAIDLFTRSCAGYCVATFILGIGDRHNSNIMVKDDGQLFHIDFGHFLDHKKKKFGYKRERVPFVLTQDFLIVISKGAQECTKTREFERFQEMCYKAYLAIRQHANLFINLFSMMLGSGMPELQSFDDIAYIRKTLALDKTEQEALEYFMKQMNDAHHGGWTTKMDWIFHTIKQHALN
Chain of PIK3CB (Human) (P42338 whole entry, looked up): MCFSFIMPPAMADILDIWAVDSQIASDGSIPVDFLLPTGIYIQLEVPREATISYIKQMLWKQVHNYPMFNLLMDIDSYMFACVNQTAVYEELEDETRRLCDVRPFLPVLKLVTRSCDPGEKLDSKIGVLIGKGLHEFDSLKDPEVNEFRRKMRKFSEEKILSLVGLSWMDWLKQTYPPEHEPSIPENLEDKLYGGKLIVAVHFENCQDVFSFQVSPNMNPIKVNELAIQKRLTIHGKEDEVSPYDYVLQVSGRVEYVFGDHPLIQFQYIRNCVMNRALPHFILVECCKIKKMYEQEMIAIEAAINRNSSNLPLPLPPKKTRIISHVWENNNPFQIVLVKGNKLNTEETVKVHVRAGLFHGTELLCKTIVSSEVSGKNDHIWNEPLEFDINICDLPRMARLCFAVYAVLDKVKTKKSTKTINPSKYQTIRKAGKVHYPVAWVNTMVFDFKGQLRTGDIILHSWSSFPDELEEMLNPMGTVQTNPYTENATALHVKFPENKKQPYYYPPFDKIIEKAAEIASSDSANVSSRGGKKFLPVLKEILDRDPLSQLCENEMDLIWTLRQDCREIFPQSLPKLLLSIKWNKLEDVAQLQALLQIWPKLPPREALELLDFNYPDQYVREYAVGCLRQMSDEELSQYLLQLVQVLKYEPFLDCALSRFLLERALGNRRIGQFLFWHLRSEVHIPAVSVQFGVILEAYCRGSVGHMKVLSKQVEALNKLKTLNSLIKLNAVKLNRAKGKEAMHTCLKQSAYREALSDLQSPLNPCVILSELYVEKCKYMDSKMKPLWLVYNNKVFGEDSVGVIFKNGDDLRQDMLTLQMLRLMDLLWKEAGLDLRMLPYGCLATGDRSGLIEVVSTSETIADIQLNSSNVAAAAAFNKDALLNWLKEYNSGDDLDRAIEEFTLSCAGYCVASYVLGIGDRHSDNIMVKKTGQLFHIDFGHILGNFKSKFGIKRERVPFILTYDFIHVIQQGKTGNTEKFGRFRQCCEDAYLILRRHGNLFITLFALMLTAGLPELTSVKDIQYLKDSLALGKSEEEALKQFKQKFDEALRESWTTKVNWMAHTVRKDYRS
Chain of PIK3CD (Human) (O00329 whole entry, looked up): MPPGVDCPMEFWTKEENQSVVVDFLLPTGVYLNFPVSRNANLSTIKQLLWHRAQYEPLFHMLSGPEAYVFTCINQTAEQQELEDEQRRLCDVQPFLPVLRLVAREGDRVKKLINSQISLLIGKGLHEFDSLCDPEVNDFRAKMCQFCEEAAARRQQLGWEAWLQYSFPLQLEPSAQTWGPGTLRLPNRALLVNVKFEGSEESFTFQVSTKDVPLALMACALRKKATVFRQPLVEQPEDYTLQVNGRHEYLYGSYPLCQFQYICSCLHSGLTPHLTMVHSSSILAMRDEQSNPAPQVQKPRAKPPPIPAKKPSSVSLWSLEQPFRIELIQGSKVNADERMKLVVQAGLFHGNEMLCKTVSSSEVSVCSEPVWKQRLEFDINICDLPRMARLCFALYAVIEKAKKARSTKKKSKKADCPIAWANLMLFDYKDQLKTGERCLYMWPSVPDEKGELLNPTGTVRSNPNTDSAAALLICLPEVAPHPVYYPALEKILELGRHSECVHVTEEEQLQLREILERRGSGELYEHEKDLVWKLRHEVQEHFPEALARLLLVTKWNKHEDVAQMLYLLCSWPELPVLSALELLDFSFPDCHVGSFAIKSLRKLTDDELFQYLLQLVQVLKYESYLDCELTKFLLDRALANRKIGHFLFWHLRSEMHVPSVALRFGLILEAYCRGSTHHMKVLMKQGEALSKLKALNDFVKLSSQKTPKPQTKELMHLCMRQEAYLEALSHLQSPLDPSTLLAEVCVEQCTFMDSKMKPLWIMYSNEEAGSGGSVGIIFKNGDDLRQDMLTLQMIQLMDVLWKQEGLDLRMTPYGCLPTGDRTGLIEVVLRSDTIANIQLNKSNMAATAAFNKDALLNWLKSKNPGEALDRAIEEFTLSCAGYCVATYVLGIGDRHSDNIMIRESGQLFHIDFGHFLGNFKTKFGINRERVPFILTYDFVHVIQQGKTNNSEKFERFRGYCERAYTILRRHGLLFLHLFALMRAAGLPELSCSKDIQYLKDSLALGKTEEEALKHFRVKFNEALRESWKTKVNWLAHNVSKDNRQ
Chain of PIK3CG (human) (P48736 whole entry, looked up): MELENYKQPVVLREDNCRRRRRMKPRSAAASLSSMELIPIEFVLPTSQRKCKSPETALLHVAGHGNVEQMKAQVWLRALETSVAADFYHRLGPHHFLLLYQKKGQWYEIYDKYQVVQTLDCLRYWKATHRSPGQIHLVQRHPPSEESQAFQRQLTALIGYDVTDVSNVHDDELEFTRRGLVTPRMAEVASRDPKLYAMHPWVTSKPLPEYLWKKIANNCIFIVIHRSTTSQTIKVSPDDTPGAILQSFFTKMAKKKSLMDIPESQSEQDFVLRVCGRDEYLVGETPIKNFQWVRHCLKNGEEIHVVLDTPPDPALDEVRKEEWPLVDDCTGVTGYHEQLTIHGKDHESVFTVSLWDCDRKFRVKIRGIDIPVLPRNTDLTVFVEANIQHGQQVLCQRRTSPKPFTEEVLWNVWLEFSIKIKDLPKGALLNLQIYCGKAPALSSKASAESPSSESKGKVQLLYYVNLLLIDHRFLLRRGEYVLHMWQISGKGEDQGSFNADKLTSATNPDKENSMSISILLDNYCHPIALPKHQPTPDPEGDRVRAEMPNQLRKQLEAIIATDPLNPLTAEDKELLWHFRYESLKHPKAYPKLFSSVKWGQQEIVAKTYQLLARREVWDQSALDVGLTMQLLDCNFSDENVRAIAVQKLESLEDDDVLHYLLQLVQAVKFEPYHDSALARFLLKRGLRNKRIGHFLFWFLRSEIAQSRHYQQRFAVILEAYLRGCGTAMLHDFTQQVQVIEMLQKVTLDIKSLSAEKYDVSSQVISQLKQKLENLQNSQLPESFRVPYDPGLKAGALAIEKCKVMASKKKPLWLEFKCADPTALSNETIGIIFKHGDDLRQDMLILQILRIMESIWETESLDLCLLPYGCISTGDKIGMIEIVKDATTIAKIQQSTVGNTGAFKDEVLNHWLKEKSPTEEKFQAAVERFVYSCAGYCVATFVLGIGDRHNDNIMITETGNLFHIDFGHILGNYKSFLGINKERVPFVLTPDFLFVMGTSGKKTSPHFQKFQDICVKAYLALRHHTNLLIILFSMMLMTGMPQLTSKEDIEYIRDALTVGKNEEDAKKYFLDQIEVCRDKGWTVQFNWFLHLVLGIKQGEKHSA

Consider `Nc1nc2cc(-c3cccnc3)ccn2n1`, for which, in experiment [1], the half-inhibitory concentration (IC50) (usually the concentration needed to halve the response being measured) lay within 100 to 1000 nM.

Take `CC(C)(C)NS(=O)(=O)c1cncc(-c2cc(F)n3nc(N)nc3c2)c1`: the IC50 in experiment [1] is below 100 nM; in experiment [2], 100 to 1000 nM.

`CCCCNS(=O)(=O)c1cccc(-c2ccn3nc(N)nc3c2)c1` registered a 50% inhibitory concentration (IC50) in experiment [1] of 100 to 1000 nM.

In turn, `Nc1nc2cc(-c3cncc(S(=O)(=O)NCc4ccccc4)c3)ccn2n1` showed an IC50 in experiment [1] below 100 nM.

`CCCNS(=O)(=O)c1cncc(-c2ccn3nc(N)nc3c2)c1` displayed a concentration for half-maximal inhibition (IC50) in experiment [1] below 100 nM.

As for `CC(C)NS(=O)(=O)c1cncc(-c2ccn3nc(N)nc3c2)c1`, the values for the half-maximal inhibitory concentration (IC50) in experiment [1], in experiment [3] and in experiment [2] were below 100 nM, 100 to 1000 nM and 100 to 1000 nM, respectively.

In experiment [1], `CS(=O)(=O)c1cccc(-c2ccn3nc(N)nc3c2)c1` displayed a half-maximal inhibitory concentration (IC50) of 100 to 1000 nM.

Regarding `Nc1nc2cc(-c3cncc(C(F)(F)F)c3)ccn2n1`, in experiment [1], the half-maximal inhibitory concentration (IC50) fell in the range of 100 to 1000 nM.

The compound `Nc1nc2cc(-c3cncc(S(=O)(=O)NCC(F)(F)F)c3)ccn2n1` gave a concentration for half-maximal inhibition (IC50) in experiment [1] below 100 nM.

In experiment [1], `CS(=O)(=O)c1cncc(-c2ccn3nc(N)nc3c2)c1` gave an IC50 below 100 nM.

`Nc1nc2cc(-c3cncc(S(=O)(=O)N4CCC4)c3)ccn2n1` gave a 50% inhibitory concentration (IC50) in experiment [1] below 100 nM.

As to `CCN(C)S(=O)(=O)c1cncc(-c2ccn3nc(N)nc3c2)c1`, the IC50 in experiment [4] is 100 to 1000 nM; in experiment [1], below 100 nM; in experiment [3] it was 100 to 1000 nM.

`CCNS(=O)(=O)c1cncc(-c2ccn3nc(N)nc3c2)c1`: the 50% inhibitory concentration (IC50) in experiment [1] was below 100 nM; in experiment [3], 100 to 1000 nM; in experiment [2], 100 to 1000 nM.

For `CC(C)(C)NS(=O)(=O)c1cncc(-c2ccn3nc(N)nc3c2)c1`, the half-inhibitory concentration (IC50) in experiment [4] was 100 to 1000 nM; in experiment [1] it was below 100 nM; in experiment [3], 100 to 1000 nM; in experiment [2], 100 to 1000 nM.

Take `CNS(=O)(=O)c1cncc(-c2ccn3nc(N)nc3c2)c1`: the figures for the IC50 in experiment [1], in experiment [3] and in experiment [2] were below 100 nM, 100 to 1000 nM and 100 to 1000 nM, respectively.

`Nc1nc2cc(-c3cncc(S(=O)(=O)NC4CC4)c3)ccn2n1`: the IC50 was below 100 nM in experiment [1], 100 to 1000 nM in experiment [3] and 100 to 1000 nM in experiment [2].

In the case of `COc1ccc(-c2ccn3nc(N)nc3c2)cc1OC`, the 50% inhibitory concentration (IC50) is 100 to 1000 nM in experiment [4], below 100 nM in experiment [1] and 100 to 1000 nM in experiment [3].

As for `CCN(CC)S(=O)(=O)c1cncc(-c2ccn3nc(N)nc3c2)c1`, the figures for the concentration for half-maximal inhibition (IC50) in experiment [1], in experiment [3] and in experiment [2] were below 100 nM, 100 to 1000 nM and 100 to 1000 nM, respectively.

Turning to `Nc1nc2cc(-c3cncc(S(N)(=O)=O)c3)ccn2n1`, the half-inhibitory concentration (IC50) in experiment [1] is below 100 nM; in experiment [3] it was 100 to 1000 nM; in experiment [2] it was 100 to 1000 nM.

As to `CC(C)(NS(=O)(=O)c1cncc(-c2ccn3nc(N)nc3c2)c1)C(F)(F)F`, the concentration for half-maximal inhibition (IC50) in experiment [1] was below 100 nM; in experiment [3] it was 100 to 1000 nM; in experiment [2], 100 to 1000 nM.

Take `Nc1nc2cc(-c3cncc(S(=O)(=O)Nc4ccccc4)c3)ccn2n1`: the IC50 is 100 to 1000 nM in experiment [4] and below 100 nM in experiment [1].
